Test results as given in US6890950B2, “Lapachone delivery systems, compositions and uses related thereto” (priority 2002, dated 2005).
“And” between values parts separate entries of the source, which are not always exact repeats. Equal values may be shown once. “Also recorded” adds a separate entry of the source. Read-outs that look alike come from different tables or passages of the source.

Experiments:
[1] = test system: DU-145 cells; test: survival / lethality of CaP cells; type: cell-based, human
[2] = test system: LNCaP; test: TUNEL apoptosis assay; type: cell-based, human; settings: for Apoptosis (%) After Drug Treatment: 10 μM, 4h
[3] = test system: NQO1-expressing LNCaP clone (LN-NQ Cl 1-4, 10); test: apoptosis in transfected LNCaP clones; type: cell-based, human; settings: 10 μM β-lap
Text: (§1) LNCaP cells were transfected with either pcDNA3 empty vector or pcDNA3 containing full-length NQO1 cDNA.

[4] = test system: LNCaP vector alone clones; test: apoptosis in transfected LNCaP clones; type: cell-based, human; settings: 10 μM β-lap
Text: as §1

[5] = test system: Lewis lung carcinoma (LLC); type: cell-based; settings: 4 μM, 4 h
Text: (§2) PARP cleavage to a 60 kDa fragment and specific p53 proteolysis are diagnostic for β-lap-induced μ-calpain-mediated apoptosis.

[6] = test system: L1C2 cells; type: cell-based; settings: 4 μM, 4 h
Text: as §2

[7] = test system: LNCaP cells; test: survival / lethality of CaP cells; type: cell-based, human; settings: LNCaP (lack NQO1)
[8] = test system: PC-3; test: TUNEL apoptosis assay; type: cell-based, human; settings: 10 μM, 4h, TUNEL 48h
[9] = solubility of β-lap in PBS (orbital shaker, UV-Vis); type: physicochemical; settings: 37° C.
Protocol: Fabrication of β-lap-loaded polymer millirods. The extremely low solubility of β-lap in water has greatly limited the clinical use of this compound. The development of drug-impregnated millirods, wherein β-lap release kinetics may be accurately permits the delivery of an efficacious form of therapy against human prostate tumors that commonly over-express the NQO1 oxidoreductase. The extinction coefficient for β-lap in water was determined to be 2.6×10^4 cm^−1M^−1 at 257 nm wavelength by UV-V is spectrophotometry. Solubility experiments were performed by immersing β-lap in PBS over a period of six days in an orbital shaker at 37° C. At the start of the experiment the drug suspension was sonicated for 20 seconds to facilitate the fast reach of solubility equilibrium. Samples were taken and filtered by 0.2 μm Millipore filters via syringe to remove non-dissolved drug particles and diluted to accommodate the UV-V is sensitive range before collecting absorbance data. […] This concentration is too low for i.v. administration in clinical applications. […] Polymer millirods were fabricated using a compression heat molding procedure as previously developed in our lab. (Halpert, B., Sheehan, E. and Schmalhorst, W. (1998) Cancer 82, 737-742.) Briefly, β-lap particles were mixed with polymer microspheres (4 μm) and various concentrations of glucose. […]

[10] = test system: normal fresh or proliferating human PBMC; settings: cited from earlier work
[11] = test system: human cancer cells; settings: variety of human cancer cells; read-out: antitumor activity (IC50); cited from earlier work
[12] = test system: PC-3 cells; test: survival / lethality of CaP cells; type: cell-based, human; settings: PC-3, absence of IR
[13] = test system: MDA-MB-468 NQO1+ human breast cancer xenografts; test: antitumor activity against xenografts; type: in vivo, athymic nude mice; settings: for antitumor activity: 55-70 mg/kg i.p. every other day
Protocol: Athymic nude mice bearing […] tumors were treated with the indicated mg/mk doses of β-lap i.p. every other day, beginning at day 26.
When tumor volumes reached 20-30 mm^3 (at day 26), mice were then treated (by intraperitoneal injection) every other day with the indicated doses (in mg/kg) of β-lap (55-70 mg/kg were tested). […] Multiple cycles of treatments are now being tested, as are various dose regimen and scheduling protocols.

[14] = test system: athymic nude mice; test: maximum tolerated dose in athymic nude mice; type: in vivo, mouse
Protocol: MDA_MB-468 NQO1+ Tumor (468) cells were injected into the right and left flanks of 18-20 gm athymic nude mice and tumors of 20-50 mm^3 volume were allowed to grow in 20-30 days. When tumor volumes reached 20-30 mm^3 (at day 26), mice were then treated (by intraperitoneal injection) every other day with the indicated doses (in mg/kg) of β-lap (55-70 mg/kg were tested). The maximum tolerated dose of β-lap in athymic nude mice was determined to be […]). Ten (10) β-lap doses were given every other day, and data are shown for only one cycle of β-lap treatment. Multiple cycles of treatments are now being tested, as are various dose regimen and scheduling protocols.
β-lap bioavailability and antitumor activity. To show efficacy of β-lap in vivo, a systemic delivery system was developed for this water-insoluble drug. β-Lap complexes with β-hydroxypropyl-β-cyclodextrin (HP-β-CD) that dissolves the drug and makes it bioavailable. The toxicity of HP-β-CD.β-lap in 18-20 gm athymic nude mice was examined and the maximum tolerated dose (MTD) was ˜75 mg/kg. […] We tested the effects of β-lap administered i.p. in athymic nude mice bearing NQO1^+ MDA-MB-468 (468) human breast cancer xenografts.

[15] = test system: C57/blk6 mice; settings: cited from earlier work
[16] = test system: DU-145; test: TUNEL apoptosis assay; type: cell-based, human; settings: 10 μM, 4h, TUNEL 48h
[17] = β-lap release from polymer millirods in PBS; type: physicochemical; settings: fabrication and controlled release

CC1(C)CCC2=C(O1)c1ccccc1C(=O)C2=O [β-lap, β-Lapachone]
lethality ([1]; DU-145, 4 μM β-lap): > 95%
survival ([1]; DU-145, 4 μM β-lap with 50 μM dicoumarol): > 95%
sensitivity to β-lap ([1]; DU-145, absence of IR): sensitive
Apoptosis (%) After Drug Treatment ([2]; LNCaP + DC (50 μM dicoumarol), TUNEL 48h): 28%
Apoptosis (%) After Drug Treatment ([2]; LNCaP + DVED, TUNEL 48h): 24%
Apoptosis (%) After Drug Treatment ([2]; LNCaP, TUNEL 48h post-treatment): 28%
less apoptosis than DU-145 or PC-3 cells ([2]; β-lap-treated LNCaP): 3 fold
apoptosis [3]: 80-90%
apoptosis [4]: < 5%
sensitivity to β-lap [5]: extremely sensitive
sensitivity to β-lap [6]: extremely sensitive
sensitivity to β-lap [7]: resistant
Apoptosis (%) After Drug Treatment ([8]; PC-3 + DC (50 μM dicoumarol)): 0.04%
Apoptosis (%) After Drug Treatment ([8]; PC-3 + DVED): 91%
Apoptosis (%) After Drug Treatment ([8]; PC-3): 82%
solubility of β-lap in PBS buffer [9]: 2.6×10^−4 M and 0.05 mg/cc
cytotoxic effects [10]: No cytotoxic effects
IC50 [11]: 1 to 10 µM
sensitivity to β-lap [12]: sensitive
antitumor activity [13]: significant antitumor responses; also recorded: Significant antitumor activity
antitumor activity ([13]; listed as β-Lap): significant antitumor activity
antitumor responses ([13]; 65 and 70 mg/kg i.p. every other day, 10 doses): Significant antitumor responses
maximum tolerated dose (MTD) ([14]; 18-20 gm athymic nude mice): 80 mg/kg
greater bioavailability in vivo than in previous studies ([14]; HP-β-CD complex MTD vs lipiodol LD50): ~3 fold
LD50 ([15]; Cremophor as vehicle): > 150 mg/kg
LD50 ([15]; lipiodol, C57/blk6 mice): > 150 mg/kg
Apoptosis (%) After Drug Treatment ([16]; DU-145 + DC (50 μM dicoumarol)): 0.12%
Apoptosis (%) After Drug Treatment ([16]; DU-145 + DVED): 76%
Apoptosis (%) After Drug Treatment ([16]; DU-145): 71%
structural integrity of released β-lap (UV-Vis spectra) [17]: maintained; also recorded: maintains its structural integrity
